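Where inhibition never reached the appropriate level, the endpoint shown equals the highest concentration tested. Otherwise, values were interpolated linearly from a five-concentration, 48-hour dose response in 96-well plates. TGI: concentration producing complete growth inhibition.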
Columns and labels:
Test in all cases: growth of human tumour cells (NCI), 48 h
TK-10 renal = test system: TK-10 renal
MOLT-4 leukemia = test system: MOLT-4 leukemia
SF-268 CNS = test system: SF-268 CNS
HCT-15 colon = test system: HCT-15 colon
OVCAR-4 ovarian = test system: OVCAR-4 ovarian
SW-620 colon = test system: SW-620 colon
SK-OV-3 ovarian = test system: SK-OV-3 ovarian
UO-31 renal = test system: UO-31 renal
ACHN renal = test system: ACHN renal
DU-145 prostate = test system: DU-145 prostate
SK-MEL-28 melanoma = test system: SK-MEL-28 melanoma
HL-60(TB) leukemia = test system: HL-60(TB) leukemia
OVCAR-8 ovarian = test system: OVCAR-8 ovarian
KM12 colon = test system: KM12 colon
HCC-2998 colon = test system: HCC-2998 colon
UACC-257 melanoma = test system: UACC-257 melanoma
SN12C renal = test system: SN12C renal
LOX IMVI melanoma = test system: LOX IMVI melanoma
HT29 colon = test system: HT29 colon
HCT-116 colon = test system: HCT-116 colon
SF-539 CNS = test system: SF-539 CNS
SNB-75 CNS = test system: SNB-75 CNS
BT-549 breast = test system: BT-549 breast
NCI/ADR-RES ovarian = test system: NCI/ADR-RES ovarian
RXF 393 renal = test system: RXF 393 renal
SF-295 CNS = test system: SF-295 CNS
HOP-62 NSCLC = test system: HOP-62 NSCLC
T-47D breast = test system: T-47D breast
UACC-62 melanoma = test system: UACC-62 melanoma
OVCAR-5 ovarian = test system: OVCAR-5 ovarian
COLO 205 colon = test system: COLO 205 colon
NCI-H460 lung = test system: NCI-H460 lung
OVCAR-3 ovarian = test system: OVCAR-3 ovarian
IGROV1 ovarian = test system: IGROV1 ovarian
786-0 renal = test system: 786-0 renal
A549 NSCLC = test system: A549 NSCLC
U251 CNS = test system: U251 CNS
EKVX NSCLC = test system: EKVX NSCLC
M14 melanoma = test system: M14 melanoma
CAKI-1 renal = test system: CAKI-1 renal
MDA-N = test system: MDA-N
SK-MEL-2 melanoma = test system: SK-MEL-2 melanoma
MDA-MB-435 = test system: MDA-MB-435
HOP-92 NSCLC = test system: HOP-92 NSCLC
SNB-19 CNS = test system: SNB-19 CNS
NCI-H23 lung = test system: NCI-H23 lung
SK-MEL-5 melanoma = test system: SK-MEL-5 melanoma
A498 renal = test system: A498 renal
MDA-MB-231 breast = test system: MDA-MB-231 breast
NCI-H226 lung = test system: NCI-H226 lung
HS 578T breast = test system: HS 578T breast
PC-3 prostate = test system: PC-3 prostate
MALME-3M melanoma = test system: MALME-3M melanoma
NCI-H522 lung = test system: NCI-H522 lung
SR leukemia = test system: SR leukemia
K-562 leukemia = test system: K-562 leukemia
MCF7 breast = test system: MCF7 breast
RPMI-8226 leukemia = test system: RPMI-8226 leukemia
CCRF-CEM leukemia = test system: CCRF-CEM leukemia

## NC(=O)C(=Cn1c(=S)[nH]c2ccc([N+](=O)[O-])cc21)C(N)=O
TK-10 renal
  TGI: > 100 µM
MOLT-4 leukemia
  TGI: > 100 µM
SF-268 CNS
  TGI: > 100 µM
HCT-15 colon
  TGI: > 100 µM
OVCAR-4 ovarian
  TGI: > 100 µM
SW-620 colon
  TGI: > 100 µM
SK-OV-3 ovarian
  TGI: > 100 µM
UO-31 renal
  TGI: > 100 µM
ACHN renal
  TGI: > 100 µM
DU-145 prostate
  TGI: > 100 µM
SK-MEL-28 melanoma
  TGI: > 100 µM
HL-60(TB) leukemia
  TGI: > 100 µM
OVCAR-8 ovarian
  TGI: > 100 µM
KM12 colon
  TGI: > 100 µM
HCC-2998 colon
  TGI: > 100 µM
UACC-257 melanoma
  TGI: > 100 µM
SN12C renal
  TGI: > 100 µM
LOX IMVI melanoma
  TGI: > 100 µM
HT29 colon
  TGI: > 100 µM
HCT-116 colon
  TGI: > 100 µM
SF-539 CNS
  TGI: > 100 µM
SNB-75 CNS
  TGI: > 100 µM
BT-549 breast
  TGI: > 100 µM
NCI/ADR-RES ovarian
  TGI: > 100 µM
RXF 393 renal
  TGI: > 100 µM
SF-295 CNS
  TGI: > 100 µM
HOP-62 NSCLC
  TGI: > 100 µM
T-47D breast
  TGI: > 100 µM
UACC-62 melanoma
  TGI: > 100 µM
OVCAR-5 ovarian
  TGI: > 100 µM
COLO 205 colon
  TGI: > 100 µM
NCI-H460 lung
  TGI: > 100 µM
OVCAR-3 ovarian
  TGI: > 100 µM
IGROV1 ovarian
  TGI: > 100 µM
786-0 renal
  TGI: > 100 µM
A549 NSCLC
  TGI: > 100 µM
U251 CNS
  TGI: > 100 µM
EKVX NSCLC
  TGI: > 100 µM
M14 melanoma
  TGI: > 100 µM
CAKI-1 renal
  TGI: > 100 µM
MDA-N
  TGI: > 100 µM
SK-MEL-2 melanoma
  TGI: > 100 µM
MDA-MB-435
  TGI: > 100 µM
HOP-92 NSCLC
  TGI: > 100 µM
SNB-19 CNS
  TGI: > 100 µM
NCI-H23 lung
  TGI: > 100 µM
SK-MEL-5 melanoma
  TGI: > 100 µM
A498 renal
  TGI: > 100 µM
MDA-MB-231 breast
  TGI: > 100 µM
NCI-H226 lung
  TGI: > 100 µM

## Oc1ccc(Cc2cc(Cc3ccc(O)cc3)cc(Cc3ccc(O)cc3)c2)cc1
TK-10 renal
  TGI: > 50 µM
MOLT-4 leukemia
  TGI: > 50 µM
SF-268 CNS
  TGI: > 50 µM
HS 578T breast
  TGI: > 50 µM
HCT-15 colon
  TGI: > 50 µM
OVCAR-4 ovarian
  TGI: > 50 µM
SW-620 colon
  TGI: > 50 µM
SK-OV-3 ovarian
  TGI: > 50 µM
UO-31 renal
  TGI: > 50 µM
ACHN renal
  TGI: > 50 µM
DU-145 prostate
  TGI: > 50 µM
SK-MEL-28 melanoma
  TGI: > 50 µM
HL-60(TB) leukemia
  TGI: > 50 µM
OVCAR-8 ovarian
  TGI: > 50 µM
KM12 colon
  TGI: > 50 µM
HCC-2998 colon
  TGI: > 50 µM
UACC-257 melanoma
  TGI: > 50 µM
SN12C renal
  TGI: > 50 µM
LOX IMVI melanoma
  TGI: > 50 µM
HT29 colon
  TGI: > 50 µM
PC-3 prostate
  TGI: > 50 µM
HCT-116 colon
  TGI: > 50 µM
SF-539 CNS
  TGI: > 50 µM
MALME-3M melanoma
  TGI: > 50 µM
SNB-75 CNS
  TGI: > 50 µM
NCI-H522 lung
  TGI: > 50 µM
BT-549 breast
  TGI: > 50 µM
NCI/ADR-RES ovarian
  TGI: > 50 µM
SF-295 CNS
  TGI: > 50 µM
SR leukemia
  TGI: > 50 µM
HOP-62 NSCLC
  TGI: > 50 µM
UACC-62 melanoma
  TGI: > 50 µM
OVCAR-5 ovarian
  TGI: > 50 µM
NCI-H460 lung
  TGI: > 50 µM
OVCAR-3 ovarian
  TGI: > 50 µM
K-562 leukemia
  TGI: > 50 µM
IGROV1 ovarian
  TGI: > 50 µM
786-0 renal
  TGI: > 50 µM
A549 NSCLC
  TGI: > 50 µM
U251 CNS
  TGI: > 50 µM
EKVX NSCLC
  TGI: > 50 µM
M14 melanoma
  TGI: > 50 µM
MDA-N
  TGI: > 50 µM
SK-MEL-2 melanoma
  TGI: > 50 µM
MDA-MB-435
  TGI: > 50 µM
SNB-19 CNS
  TGI: > 50 µM
MCF7 breast
  TGI: > 50 µM
A498 renal
  TGI: > 50 µM
MDA-MB-231 breast
  TGI: > 50 µM
RPMI-8226 leukemia
  TGI: > 50 µM
NCI-H226 lung
  TGI: > 50 µM

## O=C1CCC2(c3ccc(Cl)cc3)Nc3ccncc3N12 (stereo unspecified)
TK-10 renal
  TGI: > 10 µM
MOLT-4 leukemia
  TGI: > 10 µM
SF-268 CNS
  TGI: > 10 µM
HS 578T breast
  TGI: > 10 µM
HCT-15 colon
  TGI: > 10 µM
OVCAR-4 ovarian
  TGI: > 10 µM
SW-620 colon
  TGI: > 10 µM
SK-OV-3 ovarian
  TGI: > 10 µM
UO-31 renal
  TGI: > 10 µM
ACHN renal
  TGI: > 10 µM
DU-145 prostate
  TGI: > 10 µM
HL-60(TB) leukemia
  TGI: > 10 µM
OVCAR-8 ovarian
  TGI: > 10 µM
KM12 colon
  TGI: > 10 µM
UACC-257 melanoma
  TGI: > 10 µM
SN12C renal
  TGI: > 10 µM
LOX IMVI melanoma
  TGI: > 10 µM
HT29 colon
  TGI: > 10 µM
PC-3 prostate
  TGI: > 10 µM
HCT-116 colon
  TGI: > 10 µM
SF-539 CNS
  TGI: > 10 µM
MALME-3M melanoma
  TGI: > 10 µM
SNB-75 CNS
  TGI: > 10 µM
NCI-H522 lung
  TGI: > 10 µM
BT-549 breast
  TGI: > 10 µM
NCI/ADR-RES ovarian
  TGI: > 10 µM
SF-295 CNS
  TGI: > 10 µM
SR leukemia
  TGI: > 10 µM
UACC-62 melanoma
  TGI: > 10 µM
OVCAR-5 ovarian
  TGI: > 10 µM
NCI-H460 lung
  TGI: > 10 µM
OVCAR-3 ovarian
  TGI: > 10 µM
K-562 leukemia
  TGI: > 10 µM
CCRF-CEM leukemia
  TGI: > 10 µM
IGROV1 ovarian
  TGI: > 10 µM
786-0 renal
  TGI: > 10 µM
A549 NSCLC
  TGI: > 10 µM
U251 CNS
  TGI: > 10 µM
EKVX NSCLC
  TGI: > 10 µM
M14 melanoma
  TGI: > 10 µM
MDA-N
  TGI: > 10 µM
SK-MEL-2 melanoma
  TGI: > 10 µM
MDA-MB-435
  TGI: > 10 µM
HOP-92 NSCLC
  TGI: > 10 µM
SNB-19 CNS
  TGI: > 10 µM
NCI-H23 lung
  TGI: > 10 µM
MDA-MB-231 breast
  TGI: > 10 µM
NCI-H226 lung
  TGI: > 10 µM

## O=C1CN(c2cccc(Cl)c2)C(=O)CN1CCN1CC(=O)N(c2cccc(Cl)c2)CC1=O
TK-10 renal
  TGI: > 100 µM
MOLT-4 leukemia
  TGI: > 100 µM
SF-268 CNS
  TGI: > 100 µM
HS 578T breast
  TGI: > 100 µM
HCT-15 colon
  TGI: > 100 µM
OVCAR-4 ovarian
  TGI: > 100 µM
SW-620 colon
  TGI: > 100 µM
SK-OV-3 ovarian
  TGI: > 100 µM
UO-31 renal
  TGI: > 100 µM
ACHN renal
  TGI: > 100 µM
DU-145 prostate
  TGI: > 100 µM
SK-MEL-28 melanoma
  TGI: > 100 µM
HL-60(TB) leukemia
  TGI: > 100 µM
OVCAR-8 ovarian
  TGI: > 100 µM
KM12 colon
  TGI: > 100 µM
HCC-2998 colon
  TGI: > 100 µM
UACC-257 melanoma
  TGI: > 100 µM
SN12C renal
  TGI: > 100 µM
HT29 colon
  TGI: > 100 µM
PC-3 prostate
  TGI: > 100 µM
HCT-116 colon
  TGI: > 100 µM
SF-539 CNS
  TGI: > 100 µM
MALME-3M melanoma
  TGI: > 100 µM
SNB-75 CNS
  TGI: > 100 µM
NCI-H522 lung
  TGI: > 100 µM
BT-549 breast
  TGI: > 100 µM
RXF 393 renal
  TGI: > 100 µM
SF-295 CNS
  TGI: > 100 µM
SR leukemia
  TGI: > 100 µM
HOP-62 NSCLC
  TGI: > 100 µM
UACC-62 melanoma
  TGI: > 100 µM
OVCAR-5 ovarian
  TGI: > 100 µM
COLO 205 colon
  TGI: > 100 µM
NCI-H460 lung
  TGI: > 100 µM
OVCAR-3 ovarian
  TGI: > 100 µM
CCRF-CEM leukemia
  TGI: > 100 µM
IGROV1 ovarian
  TGI: > 100 µM
786-0 renal
  TGI: > 100 µM
A549 NSCLC
  TGI: > 100 µM
U251 CNS
  TGI: > 100 µM
EKVX NSCLC
  TGI: > 100 µM
M14 melanoma
  TGI: > 100 µM
CAKI-1 renal
  TGI: > 100 µM
MDA-N
  TGI: > 100 µM
MDA-MB-435
  TGI: > 100 µM
HOP-92 NSCLC
  TGI: > 100 µM
SNB-19 CNS
  TGI: > 100 µM
NCI-H23 lung
  TGI: 71.1 µM
SK-MEL-5 melanoma
  TGI: > 100 µM
MCF7 breast
  TGI: > 100 µM
A498 renal
  TGI: > 100 µM
RPMI-8226 leukemia
  TGI: > 100 µM

— PubChem BioAssay (NCI)
